Test results taken from patent publication US9988400B2 (Genentech, Inc., priority 2013, dated 2018).

Target: T1, HEK cells stably transfected with tetracycline inducible hNR1 and hNR2A (Homo sapiens, UniProt Q05586+Q12879)
T1 construct: expressed in transfected cells; host or cells: HEK cells, stably transfected, tetracycline/doxycycline inducible
Assay: Assay 1: Cell-Based Assay, cytosolic calcium response to positive allosteric modulators (with 30 μM glycine and 300 nM L-glutamate, EC30)
Conditions: for EC50: cytosolic calcium response, with 30 μM glycine and 300 nM L-glutamate (EC30), — = no plateau was reached; for Max %: responses scaled relative to 100 μM L-glutamate maximal response (100%) and 0 μM L-glutamate (0%)
Method in brief: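 Cells induced 24 h with 7.5 μg mL^−1 doxycycline plus 500 μM (+)-ketamine, loaded 60 min at 37 °C with calcium dye in Mg-free HBSS (1.8 mM Ca, probenecid, 10 μM (+)-ketamine, pH 7.15). Peak RFU over 5 min after compound addition, scaled to 100 μM L-glutamate (100%) and 0 μM (0%); four-parameter Hill fit for EC50, max % if no plateau.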

T1 sequence (Q12879 23-1464, other chains not shown): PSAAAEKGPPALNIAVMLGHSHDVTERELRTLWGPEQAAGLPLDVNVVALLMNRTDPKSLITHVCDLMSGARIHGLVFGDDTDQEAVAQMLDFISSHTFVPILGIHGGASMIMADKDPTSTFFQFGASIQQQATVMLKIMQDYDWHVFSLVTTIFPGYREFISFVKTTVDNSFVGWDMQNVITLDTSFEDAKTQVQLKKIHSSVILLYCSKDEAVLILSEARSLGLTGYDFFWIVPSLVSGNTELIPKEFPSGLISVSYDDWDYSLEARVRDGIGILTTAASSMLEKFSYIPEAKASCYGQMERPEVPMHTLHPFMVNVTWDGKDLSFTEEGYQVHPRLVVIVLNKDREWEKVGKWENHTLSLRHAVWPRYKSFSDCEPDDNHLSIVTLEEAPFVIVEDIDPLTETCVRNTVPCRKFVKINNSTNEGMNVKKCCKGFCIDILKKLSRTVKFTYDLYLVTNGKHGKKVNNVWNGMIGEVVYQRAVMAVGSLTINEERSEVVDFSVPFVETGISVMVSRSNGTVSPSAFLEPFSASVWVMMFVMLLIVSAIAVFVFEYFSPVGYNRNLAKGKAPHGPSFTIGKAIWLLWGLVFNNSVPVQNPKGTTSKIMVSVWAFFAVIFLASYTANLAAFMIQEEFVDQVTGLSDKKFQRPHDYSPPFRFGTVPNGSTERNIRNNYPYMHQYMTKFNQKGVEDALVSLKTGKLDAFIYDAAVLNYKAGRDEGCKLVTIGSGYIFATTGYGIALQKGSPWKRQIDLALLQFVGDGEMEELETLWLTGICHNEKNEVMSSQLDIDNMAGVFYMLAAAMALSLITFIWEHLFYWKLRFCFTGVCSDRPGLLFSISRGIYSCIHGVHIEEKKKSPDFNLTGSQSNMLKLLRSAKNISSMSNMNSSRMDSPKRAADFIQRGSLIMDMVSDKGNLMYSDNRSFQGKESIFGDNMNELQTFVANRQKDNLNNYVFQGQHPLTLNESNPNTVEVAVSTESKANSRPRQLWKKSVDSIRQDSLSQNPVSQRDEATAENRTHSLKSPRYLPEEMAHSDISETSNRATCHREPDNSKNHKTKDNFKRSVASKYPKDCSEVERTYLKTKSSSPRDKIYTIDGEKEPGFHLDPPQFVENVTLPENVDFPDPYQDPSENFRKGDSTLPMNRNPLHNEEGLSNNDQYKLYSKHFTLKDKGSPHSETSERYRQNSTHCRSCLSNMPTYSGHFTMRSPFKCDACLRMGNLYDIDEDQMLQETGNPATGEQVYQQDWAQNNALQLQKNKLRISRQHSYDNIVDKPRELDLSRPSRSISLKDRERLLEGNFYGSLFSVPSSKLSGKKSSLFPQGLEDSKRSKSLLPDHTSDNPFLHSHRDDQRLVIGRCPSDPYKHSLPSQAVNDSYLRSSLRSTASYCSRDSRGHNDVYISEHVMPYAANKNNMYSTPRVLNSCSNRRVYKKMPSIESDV

Compound | EC50 (Table 2) [µM] | Max % (Table 2) [%] | EC50 (Table 3) [µM]
CCN(Cc1cc(=O)n2c(CO)c(C)sc2n1)c1ccc(F)cc1 [Example 10.12, 7-((ethyl(4-fluorophenyl)amino)methyl)-3-(hydroxymethyl)-2-methyl-5H-thiazolo[3,2-a]pyrimidin-5-one] | 2.1 | 149 | –
Cc1sc2nc(Cn3nc(C)c4cc(F)ccc43)cc(=O)n2c1C(C)O (centres unmarked) [Example 18.5, 7-((5-fluoro-3-methyl-1H-indazol-1-yl)methyl)-3-(1-hydroxyethyl)-2-methyl-5H-thiazolo[3,2-a]pyrimidin-5-one] | – | 40.7 | –
CCNC(=O)c1c(C)sc2nc(Cc3cc(F)cc(C#N)c3)cc(=O)n12 [Example 21.10, 7-(3-cyano-5-fluorobenzyl)-N-ethyl-2-methyl-5-oxo-5H-thiazolo[3,2-a]pyrimidine-3-carboxamide] | – | 70.3 | –
CCN(Cc1cc(=O)n2c(Cl)c(C)sc2n1)c1ccc(F)cc1 [Example 11.1, 3-chloro-7-[[ethyl(4-fluorophenyl)amino]methyl]-2-methyl-5H-[1,3]thiazolo[3,2-a]pyrimidin-5-one] | 2 | 159 | –
CCN(Cc1cc(=O)n2c(-c3ccccc3)c(C)sc2n1)c1ccc(F)cc1 [Example 5.22, 7-[(N-ethyl-4-fluoro-anilino)methyl]-2-methyl-3-phenyl-thiazolo[3,2-a]pyrimidin-5-one] | 1.6 | 142 | –
Cc1sc2nc(COc3ccc(F)cc3)cc(=O)n2c1[C@@H]1C[C@@H]1CO (relative stereo) [Example 4.23, 7-(4-Fluorophenoxymethyl)-3-[cis-2-(hydroxymethyl)cyclopropyl]-2-methyl-5H-[1,3]thiazolo[3,2-a]pyrimidin-5-one] | 26.5 | 62.9 | –
COc1ccc(C#N)cc1Cc1cc(=O)n2c([C@@H]3C[C@H]3CO)c(C)sc2n1 (relative stereo) [Example 20.10, 3-[[3-[trans-2-(hydroxymethyl)cyclopropyl]-2-methyl-5-oxo-thiazolo[3,2-a]pyrimidin-7-yl]methyl]-4-methoxy-benzonitrile] | 9.1 | 127 | –
CNC(=O)c1c(C)sc2nc(Cc3cccc(C4CC4)c3)cc(=O)n12 [Example 21.52, 7-[(3-cyclopropylphenyl)methyl]-N,2-dimethyl-5-oxo-thiazolo[3,2-a]pyrimidine-3-carboxamide] | – | 72.9 | –
CCN(Cc1cc(=O)n2c(C(C)C)c(C)sc2n1)c1ccc(F)cc1 [Example 9.2, 7-[(N-ethyl-4-fluoro-anilino)methyl]-3-isopropyl-2-methyl-thiazolo[3,2-a]pyrimidin-5-one] | 2.9 | 117 | –

Next, values leading:

EC50 (Table 2) [µM] | Max % (Table 2) [%] | EC50 (Table 3) [µM] | Compound
– | – | 44.5 | O=c1cc(Cn2nc(Cl)cc2C(F)(F)F)nc2scc(Cl)n12 [compound 236, 3-chloro-7-[[3-chloro-5-(trifluoromethyl)pyrazol-1-yl]methyl]thiazolo[3,2-a]pyrimidin-5-one]
– | – | 6.46 | Cc1sc2nc(Cn3nc(C(F)(F)F)cc3Cl)cc(=O)n2c1CC#N [compound 229, 2-[7-[[5-chloro-3-(trifluoromethyl)pyrazol-1-yl]methyl]-2-methyl-5-oxo-thiazolo[3,2-a]pyrimidin-3-yl]acetonitrile]
– | – | 8.22 | CNC(=O)c1c(C)sc2nc(Oc3cccc(C(F)(F)F)c3F)cc(=O)n12 [compound 59, 7-[2-fluoro-3-(trifluoromethyl)phenoxy]-N,2-dimethyl-5-oxo-thiazolo[3,2-a]pyrimidine-3-carboxamide]
– | – | 17.5 | CCNC(=O)c1c(C)sc2nc(Cc3cc(C)cc(C#N)c3F)cc(=O)n12 [compound 49, 7-[(3-cyano-2-fluoro-5-methyl-phenyl)methyl]-N-ethyl-2-methyl-5-oxo-thiazolo[3,2-a]pyrimidine-3-carboxamide]
– | – | 0.0249 | N#CC1CC1c1c(Cl)sc2nc(Cn3nc(C(F)(F)F)cc3Cl)cc(=O)n12 (single isomer, unassigned) [compound 266]
